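Each compound was tested at five concentrations against cells in 96-well plates for 48 hours. GI50 = concentration required for 50% inhibition of growth. Definition used: TGI = concentration required for complete inhibition of growth.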
How the values were obtained:
Assay in all cases: NCI-60 cell line screen, 48 h
[1] = tested on: HS 578T breast
[2] = tested on: NCI/ADR-RES ovarian
[3] = tested on: DU-145 prostate
[4] = tested on: UACC-62 melanoma
[5] = tested on: U251 CNS
[6] = tested on: OVCAR-3 ovarian
[7] = tested on: M14 melanoma
[8] = tested on: A498 renal
[9] = tested on: MDA-MB-231 breast
[10] = tested on: OVCAR-8 ovarian
[11] = tested on: RPMI-8226 leukemia
[12] = tested on: UACC-257 melanoma
[13] = tested on: MCF7 breast
[14] = tested on: CAKI-1 renal
[15] = tested on: UO-31 renal
[16] = tested on: OVCAR-5 ovarian
[17] = tested on: SK-MEL-5 melanoma
[18] = tested on: SR leukemia
[19] = tested on: MALME-3M melanoma
[20] = tested on: RXF 393 renal
[21] = tested on: PC-3 prostate
[22] = tested on: NCI-H23 lung
[23] = tested on: HCC-2998 colon
[24] = tested on: IGROV1 ovarian
[25] = tested on: HOP-62 NSCLC
[26] = tested on: A549 NSCLC
[27] = tested on: MOLT-4 leukemia
[28] = tested on: SF-295 CNS
[29] = tested on: SK-MEL-28 melanoma
[30] = tested on: SNB-75 CNS
[31] = tested on: OVCAR-4 ovarian
[32] = tested on: KM12 colon
[33] = tested on: HL-60(TB) leukemia
[34] = tested on: SNB-19 CNS
[35] = tested on: LOX IMVI melanoma
[36] = tested on: SN12C renal
[37] = tested on: SK-OV-3 ovarian
[38] = tested on: COLO 205 colon
[39] = tested on: HT29 colon
[40] = tested on: TK-10 renal
[41] = tested on: SK-MEL-2 melanoma
[42] = tested on: NCI-H522 lung
[43] = tested on: HCT-15 colon
[44] = tested on: ACHN renal
[45] = tested on: HOP-92 NSCLC
[46] = tested on: SF-268 CNS
[47] = tested on: SW-620 colon
[48] = tested on: HCT-116 colon
[49] = tested on: NCI-H226 lung
[50] = tested on: K-562 leukemia
[51] = tested on: 786-0 renal
[52] = tested on: NCI-H460 lung
[53] = tested on: BT-549 breast
[54] = tested on: MDA-MB-435
[55] = tested on: T-47D breast
[56] = tested on: SF-539 CNS

Molecule `O=C1Nc2ccc(F)cc2/C1=C/c1ccc[nH]1` has a GI50 [1] greater than 25 µM, a TGI [1] greater than 25 µM and a GI50 [2] greater than 25 µM. For the same molecule, the TGI [2] was greater than 25 µM, the GI50 [3] was greater than 25 µM and the TGI [3] was greater than 25 µM. For the same molecule, the GI50 [4] was greater than 25 µM, the TGI [4] was greater than 25 µM and the GI50 [5] was greater than 25 µM. For the same molecule, the TGI [5] was greater than 25 µM, the GI50 [6] was greater than 18.4 µM and the TGI [6] was greater than 25 µM. The GI50 [7] was greater than 25 µM, the TGI [7] was greater than 25 µM and the GI50 [8] was greater than 25 µM. For the same molecule, the TGI [8] was greater than 25 µM, the GI50 [9] was 7.65 µM and the TGI [9] was greater than 25 µM. It also gave a GI50 [10] greater than 25 µM, a TGI [10] greater than 25 µM and a GI50 [11] greater than 25 µM. For the same molecule, the TGI [11] was greater than 25 µM, the GI50 [12] was greater than 25 µM and the TGI [12] was greater than 25 µM. It also gave a GI50 [13] of 1060 nM, a TGI [13] greater than 25 µM and a GI50 [14] of 8.03 µM. For the same molecule, the TGI [14] was greater than 25 µM, the GI50 [15] was greater than 16.8 µM and the TGI [15] was greater than 25 µM. The GI50 [16] was greater than 21.3 µM, the TGI [16] was greater than 25 µM and the GI50 [17] was greater than 25 µM. The TGI [17] was greater than 25 µM, the GI50 [18] was 7.84 µM and the TGI [18] was greater than 25 µM. The GI50 [19] was greater than 25 µM, the TGI [19] was greater than 25 µM and the GI50 [20] was greater than 18.3 µM. For the same molecule, the TGI [20] was greater than 25 µM, the GI50 [21] was greater than 25 µM and the TGI [21] was greater than 25 µM. The GI50 [22] was greater than 25 µM, the TGI [22] was greater than 25 µM and the GI50 [23] was greater than 22.1 µM. The TGI [23] was greater than 25 µM, the GI50 [24] was 13.4 µM and the TGI [24] was greater than 25 µM. The GI50 [25] was greater than 25 µM, the TGI [25] was greater than 25 µM and the GI50 [26] was greater than 25 µM. It also gave a TGI [26] greater than 25 µM, a GI50 [27] greater than 25 µM and a TGI [27] greater than 25 µM. For the same molecule, the GI50 [28] was greater than 25 µM, the TGI [28] was greater than 25 µM and the GI50 [29] was greater than 25 µM. The TGI [29] was greater than 25 µM, the GI50 [30] was greater than 25 µM and the TGI [30] was greater than 25 µM. The GI50 [31] was 4.06 µM, the TGI [31] was greater than 25 µM and the GI50 [32] was 787 nM. It also gave a TGI [32] greater than 25 µM, a GI50 [33] greater than 25 µM and a TGI [33] greater than 25 µM. For the same molecule, the GI50 [34] was greater than 25 µM, the TGI [34] was greater than 25 µM and the GI50 [35] was 24.2 µM. For the same molecule, the TGI [35] was greater than 25 µM, the GI50 [36] was greater than 25 µM and the TGI [36] was greater than 25 µM. It also gave a GI50 [37] greater than 25 µM, a TGI [37] greater than 25 µM and a GI50 [38] greater than 25 µM. For the same molecule, the TGI [38] was greater than 25 µM, the GI50 [39] was greater than 25 µM and the TGI [39] was greater than 25 µM. For the same molecule, the GI50 [40] was 14.4 µM, the TGI [40] was greater than 25 µM and the GI50 [41] was greater than 25 µM. The TGI [41] was greater than 25 µM, the GI50 [42] was greater than 25 µM and the TGI [42] was greater than 25 µM. For the same molecule, the GI50 [43] was 11.5 µM, the TGI [43] was greater than 25 µM and the GI50 [44] was 18.5 µM. It also gave a TGI [44] greater than 25 µM, a GI50 [45] greater than 14.1 µM and a TGI [45] greater than 25 µM. The GI50 [46] was greater than 25 µM, the TGI [46] was greater than 25 µM and the GI50 [47] was 24.6 µM. The TGI [47] was greater than 25 µM, the GI50 [48] was greater than 23.7 µM and the TGI [48] was greater than 25 µM. The GI50 [49] was greater than 25 µM, the TGI [49] was greater than 25 µM and the GI50 [50] was greater than 25 µM. The TGI [50] was greater than 25 µM, the GI50 [51] was greater than 25 µM and the TGI [51] was greater than 25 µM. For the same molecule, the GI50 [52] was greater than 25 µM, the TGI [52] was greater than 25 µM and the GI50 [53] was greater than 18.8 µM. For the same molecule, the TGI [53] was greater than 25 µM, the GI50 [54] was greater than 25 µM and the TGI [54] was greater than 25 µM. It also gave a GI50 [55] of 1030 nM, a TGI [55] greater than 14.2 µM and a GI50 [56] greater than 25 µM. It also gave a TGI [56] greater than 25 µM.
